Source: publication PMC8462848, “Quinazolin-4(3H)-one based potential multiple tyrosine kinase inhibitors with excellent cytotoxicity” (Journal of Enzyme Inhibition and Medicinal Chemistry, 2021)

Legend:
CDK2/CyclinA2 [1] = molecular target: T1, CDK2/CyclinA2 (Homo sapiens, UniProt P24941); test: CDK2 Assay Kit, Kinase-Glo MAX luminescence; type: biochemical; conditions: mean ± SD of triplicate
T1 construct: purchased #79599

[2] = system: MCF7 (human breast adenocarcinoma) cells; test: MTT cytotoxicity assay, MCF7; type: cell-based; conditions: Homo sapiens, MCF7, mean ± SD of triplicate
Protocol: (§1) The cytotoxicity of the synthesised quinazolin-4(3H)-ones was evaluated by MTT assay, as previously described. Two cancer cell lines, MCF7 (human breast adenocarcinoma) and A2780 (human ovary adenocarcinoma), were used in this study, which were obtained from the ATCC (Rockville, MD, USA). […] Additionally, compounds were prepared at the same medium to obtain serial dilutions (50, 25, […] and 0.1 µM). […] The media were aspirated, and the formazan crystals were solubilised by adding 150 µL DMSO. Absorbance was read on a multi-plate reader (BioRad) at […]. […] The data were obtained from triplicates and analysed using statistical software.

[3] = system: A2780 (human ovary adenocarcinoma) cells; test: MTT cytotoxicity assay, A2780; type: cell-based; conditions: Homo sapiens, A2780, mean ± SD of triplicate
Protocol: as §1

EGFR = molecular target: T2, EGFR (Homo sapiens, UniProt P00533); test: EGFR kinase assay kit, Kinase-Glo MAX luminescence; type: biochemical; conditions: for inhibition at 0.01 µM / inhibition at 0.1 µM / inhibition at 1 µM / inhibition at 10 µM: one experimental data; for IC50: mean ± SD of triplicate
T2 construct: purchased #40321
T2 sequence (P00533 25-1210): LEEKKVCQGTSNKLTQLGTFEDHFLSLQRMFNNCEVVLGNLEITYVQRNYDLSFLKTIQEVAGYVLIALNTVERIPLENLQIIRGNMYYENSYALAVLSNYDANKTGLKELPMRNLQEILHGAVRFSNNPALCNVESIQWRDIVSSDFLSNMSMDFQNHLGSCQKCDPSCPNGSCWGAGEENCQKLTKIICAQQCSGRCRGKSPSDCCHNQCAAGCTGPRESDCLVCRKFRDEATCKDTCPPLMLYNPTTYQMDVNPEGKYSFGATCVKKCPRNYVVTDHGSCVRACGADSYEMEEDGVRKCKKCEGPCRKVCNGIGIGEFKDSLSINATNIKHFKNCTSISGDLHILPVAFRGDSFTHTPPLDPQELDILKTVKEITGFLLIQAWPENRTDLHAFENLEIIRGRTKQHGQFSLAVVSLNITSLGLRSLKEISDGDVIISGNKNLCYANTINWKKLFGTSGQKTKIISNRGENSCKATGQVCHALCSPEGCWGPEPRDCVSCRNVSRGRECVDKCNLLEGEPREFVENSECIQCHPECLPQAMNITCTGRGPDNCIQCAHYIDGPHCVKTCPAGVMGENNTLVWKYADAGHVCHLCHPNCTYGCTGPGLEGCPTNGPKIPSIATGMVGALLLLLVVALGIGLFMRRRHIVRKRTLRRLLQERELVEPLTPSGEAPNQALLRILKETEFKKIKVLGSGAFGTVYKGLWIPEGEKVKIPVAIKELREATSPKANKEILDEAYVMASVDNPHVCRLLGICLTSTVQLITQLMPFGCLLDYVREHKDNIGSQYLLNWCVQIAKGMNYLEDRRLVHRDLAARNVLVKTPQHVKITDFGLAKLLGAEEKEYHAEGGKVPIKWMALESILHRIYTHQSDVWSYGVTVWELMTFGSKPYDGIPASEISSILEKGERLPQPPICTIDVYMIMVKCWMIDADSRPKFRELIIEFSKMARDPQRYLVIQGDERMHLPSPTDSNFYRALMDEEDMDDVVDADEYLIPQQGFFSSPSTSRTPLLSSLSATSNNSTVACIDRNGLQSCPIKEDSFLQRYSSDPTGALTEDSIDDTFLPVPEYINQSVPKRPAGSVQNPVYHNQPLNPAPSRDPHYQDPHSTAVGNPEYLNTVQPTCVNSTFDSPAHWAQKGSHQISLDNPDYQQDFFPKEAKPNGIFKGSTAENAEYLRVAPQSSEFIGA
Protocol: (§2) The HER2/EGFR/VEGFR2 assay kit is designed to measure HER2/EGFR/VEGFR-2 inhibitory activity for screening and profiling applications, using Kinase-Glo® MAX as a detection reagent. The HER2/EGFR/VEGFR2 assay kit comes in a convenient 96-well format, with enough purified recombinant HER2/EGFR/VEGFR2 enzyme, HER2/EGFR/VEGFR2 substrate, ATP and kinase buffer 1 for 100 enzyme reactions. […] […] The quinazolin-4(3H)-ones were diluted in 10% DMSO and 5 μl of the dilution was added to a 50 μl reaction so that the final concentration of DMSO was 1% in all of the reactions. All of the enzymatic reactions were conducted at 30 °C for 40 min. The 50 μl reaction mixture contained 40 mM Tris, pH 7.4, 10 mM MgCl2, 0.1 mg/mL BSA, 1 mM DTT, 10 mM ATP, kinase substrate and the enzyme HER2 / EGFR / VEGFR2. After the enzymatic reaction, 50 μl of Kinase-Glo® MAX luminescence kinase assay solution was added to each reaction and the plates were incubated for 5 min at room temperature. Luminescence signal was measured using a Bio Tek Synergy 2 microplate reader (For detail enzyme assay protocol and the results, please see supplementary data).

VEGFR2 = molecular target: T3, VEGFR2 (Homo sapiens, UniProt P35968); test: VEGFR2 kinase assay kit, Kinase-Glo MAX luminescence; type: biochemical; conditions: for inhibition at 0.01 µM / inhibition at 0.1 µM / inhibition at 1 µM / inhibition at 10 µM: one experimental data, read-out: % Inhibition VEGFR-2; for IC50: mean ± SD of triplicate
T3 construct: purchased #40325
T3 sequence (P35968 20-1356): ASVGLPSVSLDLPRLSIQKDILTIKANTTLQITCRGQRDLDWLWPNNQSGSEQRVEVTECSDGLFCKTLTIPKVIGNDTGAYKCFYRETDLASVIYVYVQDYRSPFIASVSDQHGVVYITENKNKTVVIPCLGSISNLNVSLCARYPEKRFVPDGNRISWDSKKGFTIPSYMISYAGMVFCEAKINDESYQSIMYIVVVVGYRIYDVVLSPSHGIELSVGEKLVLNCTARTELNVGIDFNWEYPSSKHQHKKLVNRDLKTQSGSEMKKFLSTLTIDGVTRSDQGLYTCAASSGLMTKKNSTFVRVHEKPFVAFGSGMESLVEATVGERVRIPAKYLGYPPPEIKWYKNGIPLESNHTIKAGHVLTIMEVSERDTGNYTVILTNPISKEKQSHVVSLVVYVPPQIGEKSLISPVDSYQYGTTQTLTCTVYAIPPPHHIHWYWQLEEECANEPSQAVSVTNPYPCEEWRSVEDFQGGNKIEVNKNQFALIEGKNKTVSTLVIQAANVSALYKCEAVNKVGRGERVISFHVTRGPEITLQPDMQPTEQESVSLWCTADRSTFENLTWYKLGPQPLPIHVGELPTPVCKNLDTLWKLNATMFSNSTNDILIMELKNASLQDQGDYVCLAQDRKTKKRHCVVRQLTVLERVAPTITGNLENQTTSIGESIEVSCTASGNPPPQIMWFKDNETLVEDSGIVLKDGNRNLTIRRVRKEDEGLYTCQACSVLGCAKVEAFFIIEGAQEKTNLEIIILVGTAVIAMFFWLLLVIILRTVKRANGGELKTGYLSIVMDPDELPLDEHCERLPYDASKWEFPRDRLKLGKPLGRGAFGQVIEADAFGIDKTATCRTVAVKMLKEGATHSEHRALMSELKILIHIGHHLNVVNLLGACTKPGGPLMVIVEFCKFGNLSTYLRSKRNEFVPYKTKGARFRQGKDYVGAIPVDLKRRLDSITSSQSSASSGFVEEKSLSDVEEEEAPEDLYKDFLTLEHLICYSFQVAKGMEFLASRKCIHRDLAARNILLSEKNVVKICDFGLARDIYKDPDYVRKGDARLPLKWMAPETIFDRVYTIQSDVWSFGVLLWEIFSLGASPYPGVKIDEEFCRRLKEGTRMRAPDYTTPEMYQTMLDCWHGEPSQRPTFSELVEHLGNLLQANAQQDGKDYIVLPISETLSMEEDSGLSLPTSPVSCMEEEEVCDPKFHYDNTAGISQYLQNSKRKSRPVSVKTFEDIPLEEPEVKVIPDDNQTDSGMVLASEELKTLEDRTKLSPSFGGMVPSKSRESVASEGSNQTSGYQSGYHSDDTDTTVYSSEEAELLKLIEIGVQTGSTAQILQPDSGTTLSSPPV
Protocol: as §2

HER2 = molecular target: T4, HER2 (Homo sapiens, UniProt P04626); test: HER2 kinase assay kit, Kinase-Glo MAX luminescence; type: biochemical; conditions: for inhibition at 0.01 µM / inhibition at 0.1 µM / inhibition at 1 µM / inhibition at 10 µM: one experimental data; for IC50: mean ± SD of triplicate
T4 construct: purchased #40721
T4 sequence (P04626 23-1255): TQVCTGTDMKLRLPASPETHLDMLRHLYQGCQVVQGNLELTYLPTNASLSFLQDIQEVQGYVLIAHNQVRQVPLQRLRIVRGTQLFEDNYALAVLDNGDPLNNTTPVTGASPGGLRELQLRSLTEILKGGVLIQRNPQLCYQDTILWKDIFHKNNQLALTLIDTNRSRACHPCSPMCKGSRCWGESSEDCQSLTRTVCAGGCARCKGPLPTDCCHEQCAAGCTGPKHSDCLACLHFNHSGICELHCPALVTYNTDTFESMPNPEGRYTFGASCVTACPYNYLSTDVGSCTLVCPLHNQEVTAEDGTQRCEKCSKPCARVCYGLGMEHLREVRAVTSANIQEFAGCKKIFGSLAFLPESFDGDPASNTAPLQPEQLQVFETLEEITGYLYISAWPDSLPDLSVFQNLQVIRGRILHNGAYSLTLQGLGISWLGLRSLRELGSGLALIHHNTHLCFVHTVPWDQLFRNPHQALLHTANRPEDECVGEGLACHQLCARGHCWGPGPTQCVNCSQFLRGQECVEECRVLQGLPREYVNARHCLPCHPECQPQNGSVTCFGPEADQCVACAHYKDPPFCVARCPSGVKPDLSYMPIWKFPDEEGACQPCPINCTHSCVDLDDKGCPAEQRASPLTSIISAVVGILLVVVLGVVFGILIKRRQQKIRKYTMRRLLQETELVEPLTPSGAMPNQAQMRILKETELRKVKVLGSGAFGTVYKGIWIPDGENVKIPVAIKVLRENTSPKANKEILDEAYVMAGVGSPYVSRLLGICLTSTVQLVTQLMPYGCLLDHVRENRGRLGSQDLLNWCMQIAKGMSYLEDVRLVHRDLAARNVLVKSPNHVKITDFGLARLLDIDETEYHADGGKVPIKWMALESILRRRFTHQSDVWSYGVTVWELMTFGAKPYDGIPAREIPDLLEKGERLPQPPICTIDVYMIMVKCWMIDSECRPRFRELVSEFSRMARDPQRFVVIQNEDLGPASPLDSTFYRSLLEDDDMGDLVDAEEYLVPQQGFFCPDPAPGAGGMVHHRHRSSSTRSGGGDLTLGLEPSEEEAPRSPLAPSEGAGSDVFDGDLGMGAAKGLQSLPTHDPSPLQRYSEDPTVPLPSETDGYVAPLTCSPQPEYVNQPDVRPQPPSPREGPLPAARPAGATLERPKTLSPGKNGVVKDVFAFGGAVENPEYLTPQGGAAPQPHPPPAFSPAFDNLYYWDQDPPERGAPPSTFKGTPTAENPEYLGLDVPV
Protocol: as §2

CDK2/CyclinA2 [4] = molecular target: T1, CDK2/CyclinA2; test: CDK2 Assay Kit, Kinase-Glo MAX luminescence; type: biochemical; conditions: one experimental data
Protocol: The CDK2 Assay Kit is designed to measure CDK2/CyclinA2 activity for screening and profiling applications, using Kinase-Glo® MAX as a detection reagent. The CDK2 Assay Kit comes in a convenient 96-well format, with enough purified recombinant CDK2/CyclinA2 enzyme, CDK substrate peptide, ATP and kinase assay buffer for 100 enzyme reactions. […] […] The compounds were diluted in 10% DMSO and 5 μl of the dilution was added to a 50 μl reaction so that the final concentration of DMSO was 1% in all of the reactions. All of the enzymatic reactions were conducted at 30 °C for 40 min. The 50 μl reaction mixture contained 40 mM Tris, pH 7.4, 10 mM MgCl2, 0.1 mg/mL BSA, 1 mM DTT, 10 mM ATP, Kinase substrate and the enzyme (CDK2/CyclinA2). After the enzymatic reaction, 50 μl of Kinase-Glo® MAX Luminescence kinase assay solution was added to each reaction and the plates were incubated for 5 min at room temperature. Luminescence signal was measured using a Bio Tek Synergy 2 microplate reader.
Figure S1. Calculation of the IC20 Values of Protein Kinase Enzyme CDK2 for 2f
* All the kinase IC20 (µM) were calculated according to the above equations.
(1 picture or pasted object on this page, not shown here)

In the case of `Cc1cc(Cl)cc2c(=O)n(Cc3ccccc3)c(SCC(=O)NN)nc12` [3j], the IC50 (CDK2/CyclinA2 [1]) is reported as 473 ± 33 nM, the IC50 [2] is reported as 200 ± 20 nM and the melting point is reported as 216 to 220 °C. It also gave an IC50 [3] of 220 ± 30 nM, an inhibition at 0.01 µM (EGFR) of 18.7% and an inhibition at 0.1 µM (EGFR) of 48.8%. The inhibition at 1 µM (EGFR) was 81%, the inhibition at 10 µM (EGFR) was 89.9% and the IC50 (EGFR) was 371 ± 14 nM. For the same compound, the inhibition at 0.01 µM (VEGFR2) was 1.98%, the inhibition at 0.1 µM (VEGFR2) was 22.3% and the inhibition at 1 µM (VEGFR2) was 41.1%. For the same compound, the inhibition at 10 µM (VEGFR2) was 74.4%, the IC50 (VEGFR2) was 3085 ± 16 nM and the inhibition at 0.01 µM (HER2) was 2.33%. The inhibition at 0.1 µM (HER2) was 39.5%, the inhibition at 1 µM (HER2) was 72% and the inhibition at 10 µM (HER2) was 92.2%. It also gave an IC50 (HER2) of 222 ± 12 nM, an inhibition at 0.01 µM (CDK2/CyclinA2 [4]) of 8.13% and an inhibition at 0.1 µM (CDK2/CyclinA2 [4]) of 42.8%. The inhibition at 1 µM (CDK2/CyclinA2 [4]) was 38.4% and the inhibition at 10 µM (CDK2/CyclinA2 [4]) was 84%.

Work on `CCOC(=O)CSc1nc2c(F)cc(F)cc2c(=O)n1Cc1ccccc1` [2h, Ethyl 2-((3-benzyl-6,8-difluoro-4-oxo-3,4-dihydroquinazolin-2-yl)thio)acetate] yielded an IC50 (CDK2/CyclinA2 [1]) of 318 ± 23 nM, an IC50 [2] of 840 ± 160 nM and a melting point of 120 to 123 °C. For the same compound, the IC50 [3] was 1400 ± 340 nM, the inhibition at 0.01 µM (EGFR) was 3.71% and the inhibition at 0.1 µM (EGFR) was 27.5%. For the same compound, the inhibition at 1 µM (EGFR) was 21%, the inhibition at 10 µM (EGFR) was 77.3% and the IC50 (EGFR) was 102 ± 14 nM. It also gave an inhibition at 0.01 µM (VEGFR2) of 13.3%, an inhibition at 0.1 µM (VEGFR2) of 38.9% and an inhibition at 1 µM (VEGFR2) of 70.8%. It also gave an inhibition at 10 µM (VEGFR2) of 88%, an IC50 (VEGFR2) of 2190 ± 24 nM and an inhibition at 0.01 µM (HER2) of 9.07%. It also gave an inhibition at 0.1 µM (HER2) of 38.9%, an inhibition at 1 µM (HER2) of 32.3% and an inhibition at 10 µM (HER2) of 82.3%. For the same compound, the IC50 (HER2) was 138 ± 12 nM, the inhibition at 0.01 µM (CDK2/CyclinA2 [4]) was 2.43% and the inhibition at 0.1 µM (CDK2/CyclinA2 [4]) was 12.5%. For the same compound, the inhibition at 1 µM (CDK2/CyclinA2 [4]) was 24.4% and the inhibition at 10 µM (CDK2/CyclinA2 [4]) was 80.2%.

Work on `CCOC(=O)CSc1nc2ccc(F)cc2c(=O)n1Cc1ccccc1` [2g, Ethyl 2-((3-benzyl-6-fluoro-4-oxo-3,4-dihydroquinazolin-2-yl)thio)acetate] yielded an IC50 (CDK2/CyclinA2 [1]) of 444 ± 11 nM, an IC50 [2] of 1220 ± 170 nM and a melting point of 110 to 111 °C. It also gave an IC50 [3] of 2400 ± 200 nM, an inhibition at 0.01 µM (EGFR) of 22.9% and an inhibition at 0.1 µM (EGFR) of 48.9%. For the same compound, the inhibition at 1 µM (EGFR) was 80.1%, the inhibition at 10 µM (EGFR) was 91.2% and the IC50 (EGFR) was 232 ± 30 nM. It also gave an inhibition at 0.01 µM (VEGFR2) of 2.43%, an inhibition at 0.1 µM (VEGFR2) of 18.8% and an inhibition at 1 µM (VEGFR2) of 44.1%. For the same compound, the inhibition at 10 µM (VEGFR2) was 29.2%, the IC50 (VEGFR2) was 702 ± 13 nM and the inhibition at 0.01 µM (HER2) was 17.3%. It also gave an inhibition at 0.1 µM (HER2) of 44.2%, an inhibition at 1 µM (HER2) of 83.5% and an inhibition at 10 µM (HER2) of 94.4%. The IC50 (HER2) was 884 ± 16 nM, the inhibition at 0.01 µM (CDK2/CyclinA2 [4]) was 8.38% and the inhibition at 0.1 µM (CDK2/CyclinA2 [4]) was 20.7%. For the same compound, the inhibition at 1 µM (CDK2/CyclinA2 [4]) was 78.2% and the inhibition at 10 µM (CDK2/CyclinA2 [4]) was 91.4%.

With `CCOC(=O)CSc1nc2c(C)cc(Cl)cc2c(=O)n1Cc1ccccc1` [2j] the IC50 (CDK2/CyclinA2 [1]) was 862 ± 16 nM, the IC50 [2] was 3790 ± 960 nM and the melting point was 132 to 134 °C. The IC50 [3] was 2680 ± 90 nM, the inhibition at 0.01 µM (EGFR) was 22.2% and the inhibition at 0.1 µM (EGFR) was 49.9%. It also gave an inhibition at 1 µM (EGFR) of 84.3%, an inhibition at 10 µM (EGFR) of 90.2% and an IC50 (EGFR) of 813 ± 22 nM. The inhibition at 0.01 µM (VEGFR2) was 0.324%, the inhibition at 0.1 µM (VEGFR2) was 20.3% and the inhibition at 1 µM (VEGFR2) was 38.9%. The inhibition at 10 µM (VEGFR2) was 33.9%, the IC50 (VEGFR2) was 247 ± 15 nM and the inhibition at 0.01 µM (HER2) was 12.3%. It also gave an inhibition at 0.1 µM (HER2) of 47%, an inhibition at 1 µM (HER2) of 82.4% and an inhibition at 10 µM (HER2) of 93.5%. It also gave an IC50 (HER2) of 343 ± 15 nM, an inhibition at 0.01 µM (CDK2/CyclinA2 [4]) of 4.28% and an inhibition at 0.1 µM (CDK2/CyclinA2 [4]) of 40.5%. The inhibition at 1 µM (CDK2/CyclinA2 [4]) was 37.8% and the inhibition at 10 µM (CDK2/CyclinA2 [4]) was 83.7%.

In the case of `NNC(=O)CSc1nc2ccc(Cl)cc2c(=O)n1Cc1ccccc1` [3f, 2-((3-Benzyl-6-chloro-4-oxo-3,4-dihydroquinazolin-2-yl)thio)acetohydrazide], the IC50 (CDK2/CyclinA2 [1]) is reported as 420 ± 13 nM, the IC50 [2] is reported as 340 ± 110 nM and the melting point is reported as 151 to 152 °C. It also gave an IC50 [3] of 1540 ± 600 nM, an inhibition at 0.01 µM (EGFR) of 3.31% and an inhibition at 0.1 µM (EGFR) of 31.3%. It also gave an inhibition at 1 µM (EGFR) of 31.4%, an inhibition at 10 µM (EGFR) of 84.8% and an IC50 (EGFR) of 440 ± 15 nM. For the same compound, the inhibition at 0.01 µM (VEGFR2) was 3.71%, the inhibition at 0.1 µM (VEGFR2) was 29.8% and the inhibition at 1 µM (VEGFR2) was 23.4%. For the same compound, the inhibition at 10 µM (VEGFR2) was 79.3%, the IC50 (VEGFR2) was 651 ± 14 nM and the inhibition at 0.01 µM (HER2) was 17.3%. The inhibition at 0.1 µM (HER2) was 47.8%, the inhibition at 1 µM (HER2) was 82.2% and the inhibition at 10 µM (HER2) was 90.2%. For the same compound, the IC50 (HER2) was 132 ± 14 nM, the inhibition at 0.01 µM (CDK2/CyclinA2 [4]) was 2.23% and the inhibition at 0.1 µM (CDK2/CyclinA2 [4]) was 34.7%. The inhibition at 1 µM (CDK2/CyclinA2 [4]) was 33.3% and the inhibition at 10 µM (CDK2/CyclinA2 [4]) was 81%.
